The text below walks through data of US8198311B2, “Modulators of glucocorticoid receptor, AP-1, and/or NF-κB activity and use thereof” (Bristol-Myers Squibb Company, priority 2006, dated 2012).

For experiment [1], the system named is AP-1 induced transcriptional activity. Description: Cellular Transrepressional Assay (AP-1 luciferase reporter in A549 cells, PMA-activated). The format is cell-based. Particulars: Homo sapiens, A549, 7 h, pAP-1-Luc, 10 ng/ml PMA, read-out: AP-1 (EC50, nM) (Cellular Transrepression Assay). The essentials:
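A549 cells stably carrying a 7×AP-1-luciferase reporter, stimulated with 10 ng/ml PMA with or without compound (0.1 nM-40 μM) for 7 h. Luciferase luminescence read 10 min after reagent addition; repression is percentage decrease of PMA-alone signal, EC50 by curve fitting.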
On the technique in general: Reporter assays use an easily measured gene product as a stand-in for the process of interest.

Experiment [2] concerns the target T1, human glucocorticoid receptor (Homo sapiens, UniProt P04150).
T1 construct: purified human recombinant full-length glucocorticoid receptor (2 nM); purchased Invitrogen Part # 2893
T1 sequence (P04150 1-777): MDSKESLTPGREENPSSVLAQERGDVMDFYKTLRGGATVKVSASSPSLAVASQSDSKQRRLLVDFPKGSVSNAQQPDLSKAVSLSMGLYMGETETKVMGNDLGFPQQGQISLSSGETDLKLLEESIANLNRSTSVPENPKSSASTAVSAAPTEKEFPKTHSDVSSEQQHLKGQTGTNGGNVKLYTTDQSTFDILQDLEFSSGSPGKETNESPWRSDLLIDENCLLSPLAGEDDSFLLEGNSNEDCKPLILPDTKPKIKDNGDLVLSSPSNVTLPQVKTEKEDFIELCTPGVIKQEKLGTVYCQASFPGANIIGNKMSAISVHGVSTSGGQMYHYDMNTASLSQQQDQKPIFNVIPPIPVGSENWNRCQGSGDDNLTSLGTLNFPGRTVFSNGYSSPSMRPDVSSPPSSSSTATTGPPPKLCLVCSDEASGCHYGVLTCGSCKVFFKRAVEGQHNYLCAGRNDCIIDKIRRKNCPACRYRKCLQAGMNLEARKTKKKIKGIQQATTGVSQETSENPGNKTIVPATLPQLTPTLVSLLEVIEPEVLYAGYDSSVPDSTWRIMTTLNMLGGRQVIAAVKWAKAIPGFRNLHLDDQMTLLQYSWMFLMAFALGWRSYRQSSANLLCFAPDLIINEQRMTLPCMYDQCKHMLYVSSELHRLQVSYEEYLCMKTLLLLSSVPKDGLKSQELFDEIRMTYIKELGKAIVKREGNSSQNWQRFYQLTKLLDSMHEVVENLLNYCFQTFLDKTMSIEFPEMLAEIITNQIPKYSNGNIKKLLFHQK
The experiment is described as follows: Glucocorticoid Receptor Binding Assay (I), fluorescence polarization competitor kit (Fluormone GS Red). The conditions noted are these: purified human recombinant full-length GR. The essentials: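 Fluorescence polarization competition: full-length recombinant human GR (2 nM) incubated with 1 nM Fluormone GS Red plus test compound (8.5E-05 to 5 μM) for 2 h at room temperature in the dark before FP read-out.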
For orientation: Polarisation of emitted light reports the rotation of a fluorescent probe.

Experiment [3] deals with T2, human full-length glucocorticoid receptor (Homo sapiens, UniProt P04150).
T2 construct: recombinantly expressed human full-length glucocorticoid receptor; purchased PanVera Co., Madison, Wis; P2816
T2 sequence (P04150 1-777): T1 sequence (P04150 1-777)
Description: Glucocorticoid Receptor Binding Assay (II), fluorescence polarization competitor kit (Fluormone GS1). The conditions noted are these: cell lysate with recombinant human full-length GR. The essentials: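 Lysate with recombinant human full-length GR competed against 1 nM Fluormone GS1 tracer. Fluorescence polarization was read after 1 h at room temperature, with compounds tested from 2.4 nM to 40 microMolar.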

Broadly, the EC50 is the concentration giving half of the maximal effect. A word on the Ki: it is the dissociation constant of the complex between target and ligand, obtained from inhibition or displacement.

On to `CC(C)CC(c1ccc2c(cnn2-c2ccc(F)cc2)c1)C(C)(C)CNC(=O)NC(C)(C)CN1CCCCC1` (stereo not drawn) [Example 32, 1-(3-(1-(4-fluorophenyl)-1H-indazol-5-yl)-2,2,5-trimethylhexyl)-3-(2-methyl-1-(piperidin-1-yl)propan-2-yl)urea], for which the EC50 in experiment [1] is more than 10000 nM. Further, the Ki in experiment [2] amounted to 73 nM; in experiment [3], 452 nM.

Take `CC(C)CC(c1ccc2c(cnn2-c2ccc(F)cc2)c1)C(C)(C)CNC(=O)NC1CCC1` (stereo not drawn) [Example 27, 1-cyclobutyl-3-(3-(1-(4-fluorophenyl)-1H-indazol-5-yl)-2,2,5-trimethylhexyl)urea]: the EC50 in experiment [1] turned out to be 219 nM. The results for the Ki in experiment [2] and in experiment [3] were 4.6 nM and 6.4 nM, respectively.
